Experimental data as given in patent US20220409608A1, “DIMERIC NAPHTHALIMIDE FORMULATIONS” (ALUCENT BIOMEDICAL, INC., priority 2019, published 2022).
Values belong to the compound of their own block, whether it stands above or below them.

How the values were obtained:
Type in all cases: physicochemical
[1] = Stability of formulations at 40° C. at various pH values (impurities by UPLC)
Protocol: (§1) The purity of a composition was analyzed by UPLC on a 2.1×100 mm C18 column with 1.7 μm packing. The analytical method was a 7 minute gradient at 30° C. and a flowrate of 0.61 mL/min consisting of acetonitrile, water, and trifluoracetic acid. Absorption was measured at 210 nm and 440 nm.
To determine the stability of the formulations described herein, the amount of impurities was measured. A formulation was added to a 10 mL amber vial and stored at 40° C. in a constant temperature chamber. At the desired time point(s), the formulation was analyzed by UPLC and the pH was measured. No change in physical appearance was observed.

[2] = Combination of exemplary composition and paclitaxel injection solution, UPLC; conditions: for Compound of Formula (I) (HPLC area-%) / Total impurities (HPLC area-%): equal volumes of formulation and paclitaxel injection solution (6 mg/mL); for Compound of Formula (I) (HPLC area-%) / Total impurities (HPLC area-%) / Stability after being combined in the same composition: room temperature; for Stability after being combined in the same composition: seven hours after combining Compound of Formula (I) formulation and paclitaxel
Protocol: as §1
Equal volumes of a formulation from Example 1 and paclitaxel injection solution (6 mg/mL; used as received from manufacturer) were combined in an amber scintillation vial and stored at room temperature. The resulting mixture was a clear yellow solution. An aliquot was obtained, diluted 1:10 with 0.1% aqueous TFA and analyzed by UPLC as described herein. Another aliquot was obtained, 7 hours after preparation of the mixture, and similarly diluted and analyzed.

[3] = Combination of exemplary composition and radiographic contrast agent, UPLC; conditions: for Increase in the amount of impurities of Compound of Formula (I), HPLC chromatograms: initial and 24-hour timepoints
Protocol: as §1
Equal volumes of a formulation from Example 1 and radiographic contrast agent (Omnipaque or Isovue), as received from the manufacturer, were drawn into separate syringes. The two syringes were connected to an indeflator by a three-way joint/stopcock. The indeflator was evacuated and the mixtures from both syringes were transferred into the indeflator. The indeflator was then inverted six times to ensure complete mixing of the mixtures. The resulting mixture was a yellow/orange translucent mixture, stored in an amber scintillation vial at room temperature, and analyzed by UPLC upon storage and after 24 hours.

[4] = equal volumes of formulation and Isovue, room temperature, t = 0 hours
[5] = equal volumes of formulation and Isovue, room temperature, t = 24 hours
[6] = equal volumes of formulation and Omnipaque, room temperature, t = 0 hours
[7] = equal volumes of formulation and Omnipaque, room temperature, t = 24 hours

Increase in impurity concentration ([1]; composition at a pH ranging from 5 to 7): minimal | Degradation in compositions ([1]; compositions having a pH of less than 5 or greater than 7): degrade appreciably | Compound of Formula (I) (HPLC area-%) ([2]; 0 hours): 98.9 HPLC area-% | Total impurities (HPLC area-%) ([2]; 0 hours): 1.1 HPLC area-% | Compound of Formula (I) (HPLC area-%) ([2]; 1 hour): 98.9 HPLC area-% | Total impurities (HPLC area-%) ([2]; 1 hour): 1.1 HPLC area-% | Compound of Formula (I) (HPLC area-%) ([2]; 4 hours): 98.9 HPLC area-% | Total impurities (HPLC area-%) ([2]; 4 hours): 1.1 HPLC area-% | Compound of Formula (I) (HPLC area-%) ([2]; 7 hours): 98.9 HPLC area-% | Total impurities (HPLC area-%) ([2]; 7 hours): 1.1 HPLC area-% | Increase in the amount of impurities of Compound of Formula (I), HPLC chromatograms ([2]; mixture with paclitaxel, 1- and 7-hour time points, FIG. 7): no increase | Stability after being combined in the same composition [2]: stable | Stability when combined with a radiographic contrast agent ([3]; after 24 hours, room temperature): stable | Compound of Formula (I) (HPLC area-%) [3, 4]: 98.98 HPLC area-% | Total impurities (HPLC area-%) [3, 4]: 1.02 HPLC area-% | Compound of Formula (I) (HPLC area-%) [3, 5]: 98.97 HPLC area-% | Total impurities (HPLC area-%) [3, 5]: 1.03 HPLC area-% | Compound of Formula (I) (HPLC area-%) [3, 6]: 98.98 HPLC area-% | Total impurities (HPLC area-%) [3, 6]: 1.02 HPLC area-% | Compound of Formula (I) (HPLC area-%) [3, 7]: 98.95 HPLC area-% | Total impurities (HPLC area-%) [3, 7]: 1.05 HPLC area-% | Increase in the amount of impurities of Compound of Formula (I), HPLC chromatograms ([3]; mixture with Isovue, FIG. 5): no increase | Increase in the amount of impurities of Compound of Formula (I), HPLC chromatograms ([3]; mixture with Omnipaque, FIG. 6): no increase
SMILES: NCCOCCOCCNc1ccc2c3c(cccc13)C(=O)N(CCOCCOCCN1C(=O)c3cccc4c(NCCOCCOCCN)ccc(c34)C1=O)C2=O [Compound of Formula (I), 2,2′-((ethane-1,2-diylbis(oxy))bis(ethane-2,1-diyl))bis(6-((2-(2-(2-aminoethoxy)ethoxy)ethyl)amino)-1H-benzo[de]isoquinoline-1,3(2H)-dione)]

Increase in the amount of impurities of paclitaxel, HPLC chromatograms ([2]; mixture of Compound of Formula (I) and paclitaxel, 1- and 7-hour time points, FIG. 8): no increase | Stability after being combined in the same composition [2]: stable
SMILES: CC(=O)O[C@H]1C(=O)[C@@]2(C)[C@H]([C@H](OC(=O)c3ccccc3)[C@]3(O)C[C@H](OC(=O)[C@H](O)[C@@H](NC(=O)c4ccccc4)c4ccccc4)C(C)=C1C3(C)C)[C@]1(OC(C)=O)CO[C@@H]1C[C@@H]2O [paclitaxel, reference compound]
